Experimental findings from PubChem BioAssay (NCI) are described below.

Some test systems named below: A549 NSCLC; HCC-2998 colon; HCT-116 colon; HOP-62 NSCLC; M14 melanoma; OVCAR-4 ovarian; OVCAR-5 ovarian; SNB-75 CNS; TK-10 renal; U251 CNS.
Test in all cases: NCI anticancer screen, dose series, 48 h

Molecules are shown by their SMILES.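 Five compound concentrations were applied to cells in 96-well plates for 48 hours; endpoints were derived by simple linear interpolation of the resulting dose-response curve. GI50 is the concentration that inhibits growth by half. The concentration for full growth arrest is given as TGI.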 Some results are limits rather than exact numbers.

On to `C/C1=C/C(=O)O[C@@H]2C[C@@H](CC[C@H](C)/C=C\C=C\CC1)O[C@@](O)([C@@H]1CSC(=O)N1CO)C2`, for which the GI50 in the experiment on A549 NSCLC was 46.5 nM; in the experiment on HCC-2998 colon, 13 µM; in the experiment with HCT-116 colon, 194 nM; in the experiment on HOP-62 NSCLC it was 25.4 nM; with M14 melanoma, 227 nM; with OVCAR-4 ovarian it was 176 nM. Further, the GI50 is 36.7 nM in the experiment with OVCAR-5 ovarian, 15.1 nM with SNB-75 CNS, 92.1 nM with TK-10 renal and 99.2 nM in the experiment on U251 CNS. In addition, the TGI in the experiment on A549 NSCLC is greater than 46 µM; with HCC-2998 colon, 65.4 µM; in the experiment on HCT-116 colon, 20 µM; in the experiment on HOP-62 NSCLC it was 0.176 µM; with M14 melanoma, 21.2 µM; with OVCAR-4 ovarian, 20.4 µM. The TGI in the experiment on OVCAR-5 ovarian is greater than 33.9 µM; in the experiment on SNB-75 CNS, 0.0523 µM; in the experiment on TK-10 renal, 0.341 µM; in the experiment on U251 CNS, 13.6 µM.

Take `NC(=O)C1c2ccccc2C=Cc2ccccc21`: the GI50 was greater than 100000 nM with A549 NSCLC; greater than 100 µM with HCC-2998 colon; greater than 100000 nM in the experiment with HCT-116 colon; greater than 100000 nM in the experiment on HOP-62 NSCLC; greater than 100000 nM with M14 melanoma; greater than 100000 nM in the experiment with OVCAR-4 ovarian. Also, the GI50 in the experiment with OVCAR-5 ovarian, in the experiment on SNB-75 CNS, in the experiment on TK-10 renal and with U251 CNS was greater than 100000 nM each time. The TGI with A549 NSCLC, in the experiment with HCC-2998 colon, with HCT-116 colon, in the experiment on HOP-62 NSCLC, with M14 melanoma and in the experiment on OVCAR-4 ovarian was greater than 100 µM each time. The TGI in the experiment with OVCAR-5 ovarian, in the experiment with SNB-75 CNS, in the experiment on TK-10 renal and in the experiment with U251 CNS was greater than 100 µM each time.

`CCOc1cc2ccc3c4cc(OC)c(OC)cc4cnc3c2cc1OCC`: the TGI with A549 NSCLC, in the experiment on HCC-2998 colon, in the experiment with HCT-116 colon, in the experiment with HOP-62 NSCLC, with M14 melanoma and in the experiment on OVCAR-4 ovarian was greater than 100 µM in each case. In addition, the TGI in the experiment with OVCAR-5 ovarian, with SNB-75 CNS, with TK-10 renal and in the experiment on U251 CNS was greater than 100 µM in each case.

`CNC(=O)c1c(NC(=O)c2ccc(C(F)(F)F)cc2)sc2c1CCC(=O)C2`: the GI50 was 1020 nM in the experiment on A549 NSCLC; 1.09 µM with HCC-2998 colon; 188 nM in the experiment with HCT-116 colon; 2420 nM in the experiment with HOP-62 NSCLC; 508 nM in the experiment on M14 melanoma; 604 nM in the experiment on OVCAR-4 ovarian. Further, the GI50 in the experiment on OVCAR-5 ovarian is 607 nM; in the experiment on SNB-75 CNS, 714 nM; in the experiment on TK-10 renal it was 815 nM; with U251 CNS, 314 nM. In addition, the TGI came to 8.49 µM in the experiment with A549 NSCLC; 4.12 µM with HCC-2998 colon; 1.4 µM in the experiment with HCT-116 colon; 10.9 µM with HOP-62 NSCLC; 3.77 µM with M14 melanoma; 1.92 µM in the experiment with OVCAR-4 ovarian. In addition, the TGI with OVCAR-5 ovarian stood at 2.76 µM; with SNB-75 CNS, 3.95 µM; in the experiment with TK-10 renal, 21.2 µM; in the experiment on U251 CNS, 2.06 µM.

Take `O=C(O)C1=C(C(=O)Nc2ccccc2)C2C=CC1C2` (stereo not given): the TGI in the experiment on A549 NSCLC, in the experiment with HCC-2998 colon, with HCT-116 colon, in the experiment on HOP-62 NSCLC, with M14 melanoma and in the experiment with OVCAR-4 ovarian was greater than 100 µM each time. Besides, the TGI in the experiment on OVCAR-5 ovarian, in the experiment on SNB-75 CNS, in the experiment on TK-10 renal and in the experiment with U251 CNS was greater than 100 µM each time.

With `C=C(C)[C@@H]1CC[C@]2(C(N)=O)CC[C@]3(C)[C@H](CC[C@@H]4[C@@]5(C)CC[C@H](O)C(C)(C)[C@@H]5CC[C@]43C)[C@@H]12`, the GI50 with A549 NSCLC is 2110 nM; with HCC-2998 colon, 3.96 µM; in the experiment with HCT-116 colon, 1970 nM; in the experiment with HOP-62 NSCLC it was 3210 nM; in the experiment on M14 melanoma it was 6050 nM; in the experiment with OVCAR-4 ovarian, 3540 nM. The GI50 was 3780 nM with OVCAR-5 ovarian, 2740 nM with SNB-75 CNS, 2790 nM in the experiment on TK-10 renal and 2540 nM with U251 CNS. Besides, the TGI in the experiment with A549 NSCLC was 5.39 µM; with HCC-2998 colon it was 12.9 µM; in the experiment on HCT-116 colon it was 3.96 µM; in the experiment on HOP-62 NSCLC, 12.8 µM; in the experiment on M14 melanoma, greater than 100 µM; in the experiment on OVCAR-4 ovarian, 19.8 µM. Also, the TGI with OVCAR-5 ovarian was found to be 16.5 µM; in the experiment on SNB-75 CNS it was 12.1 µM; in the experiment with TK-10 renal it was 7.59 µM; in the experiment on U251 CNS, 7.16 µM.
